This note sets out measurements from patent US20230255969A1, “TARGETING IMMUNE P[…] BY HIGHLY PATHOGENIC CORONAVIRUSES” (priority 2020, published 2023).

This experiment concerns bone marrow derived mast cells (BMMCs). Type of experiment: cell-based, C57Bl/6 mouse.

For the compound `O=C(O)c1cc(=O)c2c(OCC(O)COc3cccc4oc(C(=O)O)cc(=O)c34)cccc2o1` [cromolyn, 5-[3-(2-carboxy-4-oxochromen-5-yl)oxy-2-hydroxypropoxy]-4-oxochromene-2-carboxylic acid], the “Mast cell degranulation in response to SARS-CoV-2 Spike protein (percentage degranulation)” value is reported as “reduced”.
